Reference: patent US12162858B2, “Quinoline derivatives as inhibitors of AXL/MER RTK and CSF1R” (QURIENT CO., LTD., priority 2018, dated 2024)
Read-outs that look alike come from different tables or passages of the source.

How the values were obtained:
[1] = test system: CSF1R (M-NFS-60 cells); test: Cell Titer-Glo viability assay using M-NFS-60 cells; format: cell-based; conditions: Mus musculus, read-out: Cellular CSF1R activity by M-NFS-60 viability assay (IC50 activity range)
Procedure: M-NFS-60 cells were cultured in RPMI-1640 medium containing 10% FBS, 0.05 mM 2-Mercaptoethanol, penicillin (100 U/ml)/streptomycin ([…]) and supplemented with 62 ng/ml recombinant human M-CSF at 37° C./5% CO2. Aliquots of the cells were seeded into a 96-well plate (2×10^5 cells in 100 μl/well) and then incubated at 37° C./5% CO2 1 h. Dissolve compound in 100% DMSO to make 10 mM stock solutions (Aliquots stored in the Nitrogen Cabinet). Dilute 10 mM compounds solutions for 2-fold in 100% DMSO to get 5 mM solutions (10 μl+10 μl DMSO), and then make a 3-fold serial dilution (10 μl+20 μl DMSO) for 10 doses. For reference compounds: Dilute 10 mM compounds solutions for 20-fold in 100% DMSO to get 0.5 mM solutions (2 μl+38 μl DMSO), and then make a 3-fold serial dilution (10 μl+20 μl DMSO) for 8 doses. The 96-well plate was equilibrated at room temperature for 30 min. 50 μl of CellTiter-Glo® Reagent added to each well and mixed for 2 min on an orbital shaker to induce cell lysis. The 96-well plate was incubated at room temperature for 10 min to stabilize luminescent signal. Luminescent was measured […] by EnVison plate reader. Calculations and Formulas: The following calculations and formulas are used for data analysis using XL Fit software: The curve fitting was made using the Sigmoidal Dose-Response Model (Fit model, 205).

[2] = target: T1, Mer (Homo sapiens, UniProt Q12866); test: LanthaScreen Eu kinase binding assay for Mer
T1 construct: purchased Life Technologies
T1 sequence (Q12866 21-999): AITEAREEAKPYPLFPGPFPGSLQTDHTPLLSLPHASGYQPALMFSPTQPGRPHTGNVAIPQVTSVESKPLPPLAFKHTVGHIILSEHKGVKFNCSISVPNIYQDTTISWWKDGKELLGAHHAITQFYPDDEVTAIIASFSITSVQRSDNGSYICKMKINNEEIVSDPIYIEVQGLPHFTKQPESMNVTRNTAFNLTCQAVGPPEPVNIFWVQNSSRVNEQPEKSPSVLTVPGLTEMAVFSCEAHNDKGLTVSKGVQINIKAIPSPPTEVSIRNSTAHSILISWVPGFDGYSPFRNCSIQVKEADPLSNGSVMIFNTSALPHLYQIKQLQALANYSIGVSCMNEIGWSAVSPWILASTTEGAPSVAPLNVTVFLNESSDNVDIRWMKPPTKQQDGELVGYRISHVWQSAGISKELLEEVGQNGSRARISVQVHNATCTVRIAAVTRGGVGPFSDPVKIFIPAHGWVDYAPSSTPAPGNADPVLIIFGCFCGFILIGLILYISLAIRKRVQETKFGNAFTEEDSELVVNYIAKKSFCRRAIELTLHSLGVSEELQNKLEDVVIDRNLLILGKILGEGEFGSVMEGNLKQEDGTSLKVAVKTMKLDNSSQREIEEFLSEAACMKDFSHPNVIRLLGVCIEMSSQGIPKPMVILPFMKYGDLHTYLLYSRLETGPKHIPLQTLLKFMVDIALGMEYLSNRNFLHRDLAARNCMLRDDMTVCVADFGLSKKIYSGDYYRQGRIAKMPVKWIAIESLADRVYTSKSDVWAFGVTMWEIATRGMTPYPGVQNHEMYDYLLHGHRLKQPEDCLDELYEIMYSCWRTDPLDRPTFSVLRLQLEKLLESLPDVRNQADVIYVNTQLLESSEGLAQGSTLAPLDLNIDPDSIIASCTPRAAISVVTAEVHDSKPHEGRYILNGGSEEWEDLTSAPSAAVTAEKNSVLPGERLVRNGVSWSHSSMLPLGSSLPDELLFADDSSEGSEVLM
Procedure: LanthaScreen® Eu Kinase Binding assays were conducted at Life Technologies using the manufacturer's specifications for each kinase indicated.
Briefly, the principle behind this assay is based upon the binding and displacement of an Alexa Fluor 647-labeled tracer to the kinase of interest. Binding of the tracer to the kinase is detected using an EU-labeled anti-tag antibody. Simultaneous binding of both the tracer and antibody to the kinase gives rise to a FRET-signal. Binding of an inhibitor to the kinase competes for binding with the tracer, resulting in a loss of FRET-signal.
A given compound was diluted in DMSO to make a stock compound solution. The stock compound solution was serially diluted over eight steps in DMSO. Each diluted compound solution in DMSO was diluted in kinase buffer. Afterwards four kinds of working solution were prepared. First, Tracer-Working solution consists of Tracer 236 and Kinase Buffer. Second, Axl, Mer, Tyro3 or Met/anti-GST-AB-Working solution contained one of the kinases Axl, and Mer or anti-GST-AB (=anti glutathione-S-transferase antibody) in Kinase Buffer. Third, anti-GST-AB-Working solution was made with anti-GST-AB and Kinase Buffer. Last, in the DMSO-Working solution DMSO was added to Kinase Buffer to a final concentration to 3%. Each of the four kinds of working solutions were separately added to the assay plate and then incubated for 1 h at room temperature. After incubation, the assay plate was measured with respect to the FRET-Signal with the EnVision (Perkin Elmer) using the program LanthaHTRF-Assay. Data evaluation was done in the Quattro Workflow software. Kd (the equilibrium dissociation constant) values were calculated relative to vehicle (DMSO) control wells.

[3] = read-out: Mer kinase binding activity (Kd)
[4] = comparison of compounds of present invention (**) vs compounds of WO2016/166250 (*), read-out: Binding activity Mer (Kd)

| Structure (SMILES) | Kd [2, 3] | Kd [2, 4] | IC50 [1] |
| --- | --- | --- | --- |
| COc1cc2nccc(Oc3ccc(NC(=O)c4nn(C5CC5)cc4OCC(F)F)nc3)c2cc1OC [Compound 109] | < 100 nM |  | < 1000 nM |
| CCn1cc(OC(C)C)c(C(=O)Nc2ccc(Oc3ccnc4cc(OC)c(OC)cc34)cn2)n1 [Compound 6] | < 100 nM |  | < 1000 nM |
| CNCCn1cc(OCC(F)(F)F)c(C(=O)Nc2ccc(Oc3ccnc4cc(OC)c(OC)cc34)cc2F)n1 [Compound 154] | < 100 nM |  | 1000 to 10000 nM |
| COc1cc2nccc(Oc3ccc(NC(=O)c4nn(CC5COC5)cc4OCC(F)(F)F)nn3)c2cc1OC [Compound 123] | < 100 nM |  | 1000 to 10000 nM |
| COc1cc2nccc(Oc3ccc(NC(=O)c4nn(CC(C)O)cc4OCC(F)(F)F)cn3)c2cc1OC (centres unmarked) [Compound 136] | < 100 nM |  | 1000 to 10000 nM |
| COc1cc2nccc(Oc3ccc(NC(=O)c4nn(C5CCOC5)cc4OCC(F)(F)F)cn3)c2cc1OC (centres unmarked) [Compound 138] | < 100 nM |  | 1000 to 10000 nM |
| COc1cc2nccc(Oc3ccc(NC(=O)c4nn(CCOC5CC5)cc4OCC(F)(F)F)nc3)c2cc1OC [Compound 153] | < 100 nM |  | < 1000 nM |
| COc1cc2nccc(Oc3ccc(NC(=O)c4nn(C5CC5)cc4OCCF)nn3)c2cc1OC [Compound 113] | < 100 nM |  | 1000 to 10000 nM |
| COc1cc2nccc(Oc3ccc(NC(=O)c4nn(C5CC5)cc4NCCC(F)(F)F)nc3)c2cc1OC [Compound 142] | < 100 nM |  | 1000 to 10000 nM |
| COc1cc2nccc(Oc3ccc(NC(=O)c4nn(C5CCN(C)C5)cc4OCC(F)(F)F)cn3)c2cc1OC (centres unmarked) [Compound 133] | 100 to 500 nM |  | 1000 to 10000 nM |
| COc1cc2nccc(Oc3ccc(NC(=O)c4nn(CCOC5CC5)cc4OCC(F)(F)F)cc3)c2cc1OC [Compound 118] | < 100 nM |  | 1000 to 10000 nM |
| COc1cc2nccc(Oc3ccc(NC(=O)c4nn(CC(C)C)cc4OCC(F)(F)F)nn3)c2cc1OC [Compound 124] | < 100 nM |  | 1000 to 10000 nM |
| COc1cc2nccc(Oc3ccc(NC(=O)c4nn(C5CC5)cc4OCC4COC4)nc3)c2cc1OC [Compound 143] | < 100 nM |  | 1000 to 10000 nM |
| CCCn1cc(OCCNC)c(C(=O)Nc2ccc(Oc3ccnc4cc(OC)c(OC)cc34)cn2)n1 [Compound 140] | 100 to 500 nM |  | 1000 to 10000 nM |
| COc1cc2nccc(Oc3ccc(NC(=O)c4nn(CC5COC5)cc4OCC(F)(F)F)cc3F)c2cc1OC [Compound 97] | < 100 nM |  | 1000 to 10000 nM |
| COc1cc2nccc(Oc3ccc(NC(=O)c4nn(C5CC5)cc4OCC4CCC4)nn3)c2cc1OC [Compound 149] | < 100 nM |  | 1000 to 10000 nM |

Second part, led by results:

| Kd [2, 3] | Kd [2, 4] | Structure (SMILES) | IC50 [1] |
| --- | --- | --- | --- |
| ≥ 500 nM |  | CNCCOc1cn(C2CC2)nc1C(=O)Nc1ccc(Oc2ccnc3cc(OC)c(OC)cc23)cn1 [Compound 141] | ≥ 10000 nM |
| < 100 nM |  | COc1cc2nccc(Oc3ccc(NC(=O)c4nn(CC(C)O)cc4OCCF)nc3)c2cc1OC (centres unmarked) [Compound 152] | < 1000 nM |
| < 100 nM |  | COc1cc2nccc(Oc3ccc(NC(=O)c4nn(C5CC5)cc4NCCC(F)(F)F)nn3)c2cc1OC [Compound 146] | 1000 to 10000 nM |
| < 100 nM |  | COc1cc2nccc(Oc3ccc(NC(=O)c4nn(CC5COC5)cc4OCC(F)(F)F)cc3C)c2cc1OC [Compound 99] | 1000 to 10000 nM |
| ≥ 500 nM |  | CNCCn1cc(OCC(F)(F)F)c(C(=O)Nc2ccc(Oc3ccnc4cc(OC)c(OC)cc34)nc2)n1 [Compound 137] | 1000 to 10000 nM |
| 100 to 500 nM |  | CNCCn1cc(OCC(F)(F)F)c(C(=O)Nc2ccc(Oc3ccnc4cc(OC)c(OC)cc34)cc2)n1 [Compound 119] | 1000 to 10000 nM |
| < 100 nM |  | COCCn1cc(OCC(F)(F)F)c(C(=O)Nc2ccc(Oc3ccnc4cc(OC)c(OC)cc34)nc2)n1 [Compound 104] | ≥ 10000 nM |
| < 100 nM | 0.2 nM | COCCn1cc(OCC(F)(F)F)c(C(=O)Nc2ccc(Oc3ccnc4cc(OC)c(OC)cc34)cn2)n1 [Compound 10] | < 1000 nM |
| < 100 nM |  | CCCn1cc(OCC2CCOCC2)c(C(=O)Nc2ccc(Oc3ccnc4cc(OC)c(OC)cc34)cn2)n1 [Compound 164] | ≥ 10000 nM |
| < 100 nM |  | CCCn1cc(NCCC(F)(F)F)c(C(=O)Nc2ccc(Oc3ccnc4cc(OC)c(OC)cc34)cn2)n1 [Compound 158] | 1000 to 10000 nM |
| ≥ 500 nM |  | COc1cc2nccc(Oc3ccc(NC(=O)c4nn(CCN)cc4OCC(F)(F)F)nn3)c2cc1OC [Compound 125] | ≥ 10000 nM |
| < 100 nM | 1.3 nM | COc1cc2nccc(Oc3ccc(NC(=O)c4nn(CC5COC5)cc4OCC(F)(F)F)nc3)c2cc1OC [Compound 92] | < 1000 nM |
| < 100 nM |  | COc1cc2nccc(Oc3ccc(NC(=O)c4nn(C5CCN(C)C5)cc4OCC(F)(F)F)cc3F)c2cc1OC (centres unmarked) [Compound 96] | 1000 to 10000 nM |
| < 100 nM |  | CCCn1cc(OCC(F)(F)F)c(C(=O)Nc2ccc(Oc3ccnc4cc(OC)c(OC)cc34)nc2)n1 [Compound 139] | 1000 to 10000 nM |
| 100 to 500 nM |  | CNCCn1cc(OCC(F)(F)F)c(C(=O)Nc2ccc(Oc3ccnc4cc(OC)c(OC)cc34)c(C)c2)n1 [Compound 156] | 1000 to 10000 nM |
| < 100 nM |  | COc1cc2nccc(Oc3ccc(NC(=O)c4nn(CCOC5CC5)cc4OCC(F)(F)F)cn3)c2cc1OC [Compound 130] | 1000 to 10000 nM |
| < 100 nM |  | COc1cc2nccc(Oc3ccc(NC(=O)c4nn(CC(C)O)cc4OC(C)C)nc3)c2cc1OC (centres unmarked) [Compound 151] | < 1000 nM |
| < 100 nM |  | COc1cc2nccc(Oc3ccc(NC(=O)c4nn(CC5COC5)cc4OCC(F)(F)F)cn3)c2cc1OC [Compound 134] | ≥ 10000 nM |
| 100 to 500 nM |  | COc1cc2nccc(Oc3ccc(NC(=O)c4nn(C5CC5)cc4OCC4CNC4)nc3)c2cc1OC [Compound 144] | ≥ 10000 nM |
| < 100 nM |  | COCCOc1cn(C2CC2)nc1C(=O)Nc1ccc(Oc2ccnc3cc(OC)c(OC)cc23)cn1 [Compound 107] | 1000 to 10000 nM |
| ≥ 500 nM |  | CNCCOc1cn(C2CC2)nc1C(=O)Nc1ccc(Oc2ccnc3cc(OC)c(OC)cc23)nn1 [Compound 160] | ≥ 10000 nM |
| < 100 nM |  | COc1cc2nccc(Oc3ccc(NC(=O)c4nn(C)cc4OCC(F)(F)F)nn3)c2cc1OC [Compound 102] | 1000 to 10000 nM |
| < 100 nM |  | CCCn1cc(OCC(F)(F)F)c(C(=O)Nc2ccc(Oc3ccnc4cc(OC)c(OC)cc34)cn2)n1 [Compound 7] | < 1000 nM |
